Experimental data from patent US7932279B2 (ArQule, Inc., priority 2007, dated 2011).

Assays:
[1] = target: T1, HSP90α (Homo sapiens, UniProt P07900); test: HSP90 binding assay (fluorescent ELISA, competition with biotinylated Geldanamycin); settings: reported as range of IC50's
T1 construct: purchased Stressgen Lot B506492
Protocol: The biochemical assay is described as follows.
Purified HSP90α […] was purchased from Stressgen Lot B506492. Single use aliquots of the 1.15 mg/ml stock were prepared and stored at −80° C. to avoid multiple freeze-thaw cycles.
A Nunc Maxisorb plate was coated overnight at 4° C. with 200 ng of HSP90/well dissolved in DPBS. The following day the plates were washed with TBST and blocked for 2 h at room temperature with blocking buffer (20 mM HEPES pH 7.3, 1 mM EDTA, 5 mM MgCl2, 100 mM KCl, 5% BSA). Blocking buffer was removed by washing plates with TBST, and test compounds dissolved in assay buffer (20 mM HEPES pH 7.3, 1 mM EDTA, 5 mM MgCl2, 100 mM KCl, 1% BSA) were added to plate. […] The reaction is incubated for 60 minutes at room temperature. […] Competitive inhibitory compounds will block this interaction from occurring.
The reactions were stopped by washing the plate with TBST. The binding of the bio-GM is detected by the addition of an Alkaline Phosphatase tagged Streptavidin molecule. A TBST wash eliminates any unbound detection agent, and the Alkaline Phosphate substrate Attophos is introduced. This substrate generates a fluorescent signal at […] when excited at […]. These plates can be monitored on either a Victor 5 or Perkin Elmer Envision multilabel reader.

[2] = test system: SK-BR-3; test: MTS assay (cell viability); format: cell-based; settings: Homo sapiens; SK-BR-3 cells, 72 hours with compound, 50% reduction in number of viable cells; read-out: IC50'S(SK-BR-3)
Protocol: The anti-proliferative effects of biochemically active compounds were measured utilizing the MTS assay. The generalized procedure is describes as follows:
The cells are then trypsinized and re-plated in 96 well sterile cell culture plates in 130 μl/well growth media at a density that allows confluency of approximately 50% after 72 hours of growth. These starting densities vary across cell lines based on individual doubling times. The day following plating, the cell was treated with an appropriate concentration of compound diluted in DMSO. Cell plates were allowed to grow undisturbed at 37° C., 5% CO2 for 72 h. After 72 hours, 30 μl of a solution of 0.046 mg/ml Phemazine methosulfate (PMS) (Fluka product 68600) and 1.9 mg/ml MTS reagent ([3-(4,5-dimethylthiazol-2-yl)-5-(3 carboxymethoxyphenyl)-2-(4-sulfophenyl)-2H-tetrazolium, inner salt (Promega product G1111) is added directly to the well. Plate is re-incubated at 37° C., 5% CO2 for 4 hr. Plates were then read on the Perkin Elmer Envision to determine absorbance at 490 nm.
Cell viability was determined by measuring the activity of dehydrogenase enzymes in metabolically active cells using a tetrazolium compound, MTS. The assay was performed as described in Promega Technical Bulletin No. 169 (CellTiter 96 Aqueous Non-Radioactive Cell Proliferation Assay). Ten human cancer cell lines were assayed (see, e.g. Table 1). Cells were maintained at 37° C. and 5% CO2 in DMEM media (4.5 g/L glucose) supplemented with 10% heat-inactivated FBS, 10 mM L-glutamine, and 10 mM Hepes pH 7.5. Briefly, cells were seeded in 96-well plates as set forth in Table 1 and incubated for 16-24 hours. Candidate compounds were serially diluted in DMSO, further diluted in cell culture media, and then added to cells (final DMSO concentration of 0.33%). Cells were incubated in the presence of candidate compound for 72 hours. MTS stock solution (MTS 2 gm/L, PMS […] in PBS) was added to the cells (final concentration MTS […] and PMS 7.67 mg/L) and incubated for 4 hours. SDS was added to a final concentration of 1.4% and absorbance at 490 nm was measured within two hours using a plate reader. The IC50 was defined as the concentration of compound that results in a 50% reduction in the number of viable cells as compared to control wells treated with DMSO only (0.33%) and was calculated using non-linear regression analysis. IC50 values were given in Table 3 for the compounds listed.

[3] = aqueous solution; cited from earlier work
[4] = clinical trials; cited from earlier work

IC50 [1] [µM] | IC50 [2] [µM] | melting point [°C] | SMILES | solubility [3] | hepatotoxicity [4]
10 to 50 | 15.3 | 144 to 182 | COCCCn1nnnc1-c1cc(-c2cccc(C(F)(F)F)c2)c(O)cc1O [Compound 7, 5-[1-(3-methoxy-propyl)-1H-tetrazol-5-yl]-3′-trifluoromethyl-biphenyl-2,4-diol] | – | –
– | – | – | C=CCNC1=C2C[C@@H](C)C[C@H](OC)[C@H](O)[C@@H](C)/C=C(\C)[C@H](OC(N)=O)[C@@H](OC)/C=C\C=C(/C)C(=O)NC(=CC1=O)C2=O [Compound 17-AAG, 17-Allylamino-17-demethoxygeldanamycin] | low solubility | –
10 to 50 | – | 206 to 209 | COc1ccc(C(C)C)cc1-c1cc(-c2nnnn2CCc2ccccc2)c(O)cc1O [Compound 26, 5′-isopropyl-2′-methoxy-5-(1-phenethyl-1H-tetrazol-5-yl)-biphenyl-2,4-diol] | – | –
– | – | – | CO[C@H]1/C=C\C=C(/C)C(=O)NC2=CC(=O)C(NCCN(C)C)=C(C[C@@H](C)C[C@H](OC)[C@H](O)[C@@H](C)/C=C(\C)[C@@H]1OC(N)=O)C2=O [DMAG, 17-Dimethylaminoethylamino-17-demethoxygeldanamycin] | low solubility | –
– | – | – | COC1=C2C[C@@H](C)C[C@H](OC)[C@H](O)[C@@H](C)/C=C(\C)[C@H](OC(N)=O)[C@@H](OC)/C=C\C=C(/C)C(=O)NC(=CC1=O)C2=O [geldanamycin] | poorly soluble | hepatotoxicity proved problematic
